Experimental data taken from patent publication US11505797B2, “Gene knockout of variant NRF2 for treatment of cancer” (Christiana Care Health Services, Inc., priority 2019, dated 2022).
Entries after “also recorded” stand apart in the source; their conditions may differ.

Experiments:
wildtype NRF2 sequence = test: In vitro cleavage reaction, wildtype NRF2 amplicons; assay type: biochemical, human; conditions: A549 or H1703 parental amplicons, 0.5-5 pmol RNP, gel electrophoresis
Description: (§1) As proof of concept, an in vitro cleavage reaction was conducted to assess the level of discrimination using the R34G guide RNA in a ribonucleoprotein complex (RNP). The in vitro cleavage reaction encompasses complexing target specific-guide RNA with Cas9 protein to form a ribonucleoprotein (RNP). The RNP is incubated with DNA of interest (100 ng) and the reaction and cleavage products are visualized by gel electrophoresis. For this experiment, wildtype and R34G-mutated NRF2 PCR products (901 bp) from an NRF2 expression plasmid (FIG. 21) were incubated with R34G-targeting RNP complex (1 μM) and cleavage products were visualized by gel electrophoresis, shown in FIG. 22.
Once the sequences were verified, genomic DNA from each cell line was used to amplify exon 2 of NRF2. The PCR products (530 bp) from each cell line were then used in in vitro cleavage reactions under various parameters to test specificity and fidelity of the R34G-targeting RNP. For these cleavage reactions, expected cleavage products would appear at 385 and 145 bp as indicated by the red lines along the ladder, with uncut product appearing at 530 bp. FIG. 24 depicts the gel image from an in vitro cleavage reaction using wildtype NRF2 sequence from parental A549 cells and R34G-mutated NRF2 sequence from the A549 R34G-6 cells. […]

[1] = tested on: R34G-mutated NRF2 sequence; test: In vitro cleavage reaction, R34G-mutated NRF2 amplicons; assay type: biochemical, human; conditions: A549 R34G-6 amplicon, 0.5-5 pmol RNP, gel electrophoresis
Description: as §1
Once the sequences were verified, genomic DNA from each cell line was used to amplify exon 2 of NRF2. The PCR products (530 bp) from each cell line were then used in in vitro cleavage reactions under various parameters to test specificity and fidelity of the R34G-targeting RNP. For these cleavage reactions, expected cleavage products would appear at 385 and 145 bp as indicated by the red lines along the ladder, with uncut product appearing at 530 bp. FIG. 24 depicts the gel image from an in vitro cleavage reaction using wildtype NRF2 sequence from parental A549 cells and R34G-mutated NRF2 sequence from the A549 R34G-6 cells. An increasing concentration (0.5-5 pmol) of R34G-targeting RNP was used to determine the threshold and fidelity of the sequence. […] Uncut product (top band, 530 bp) can still be seen in lanes 7-10, which corresponds to the heterozygosity of the R34G mutation in the A549 R34G-6 cell line. Therefore, the wildtype NRF2 allele in the A549 R34G-6 cell line acts as an internal negative control.
Another in vitro cleavage reaction was conducted to assess the cleavage efficiency of the wildtype NRF2 sequence to ensure the R34G-targeting RNP was, in fact, not cleaving the wildtype NRF2 sequence because of the lack of the R34G mutation. A guide RNA with a cut site 29 bp upstream (labeled Neh2 RNP) from the R34G RNP cut site was selected and used as a positive cleavage control. […] Lanes 1-8 were reactions using wildtype NRF2 sequence while lanes 9-16 were reactions using R34G-mutated NRF2 sequence. In lanes 2-4 and 10-12, PCR products were incubated with increasing concentrations (1, 3 & 5 pmol) of RNP targeting the beginning of exon 2 (Neh2 RNP). The Neh2 guide RNA sequence is: 5′ […] 3′ (SEQ ID NO:13) which is a native CRISPR site and used as the positive control for cleavage for these reactions. […] In lanes 6-8 and 14-16, PCR products were incubated with increasing concentrations (1, 3 & 5 pmol) of R34G-targeting RNP. […] This further reinforces the specificity of the R34G-targeting RNP only recognizing the target DNA in the presence of the R34G mutation in exon 2 of NRF2. […]

wild type A549 cells = test: MTS cell proliferation assay, wild type A549 cells; assay type: cell-based, human
Description: (§2) Cell viability was evaluated using the CellTiter 96 Aqueous Non-Radioactive Cell Proliferation Assay (Promega, Madison, Wis.). A549 cell lines were plated at 2×10^3 cells per well and allowed to culture for 24 hours. The cell media was then aspirated, the cells washed with PBS, then exposed to the MTS reagent for 3 hours. After 3 hours of MTS bio-reduction by proliferating cells, the formazan product's absorbance was measured using a 450 nm filter on an Infinite 2000 PRO microplate reader (Tecan, Mannadorf, Switzerland). Cell viability after drug exposure was evaluated using the CellTiter 96 Aqueous Non-Radioactive Cell Proliferation Assay. A549 cell lines were plated at 2×10^3 cells per well and allowed to culture for 24 hours. The cells were then treated with cisplatin, carboplatin, or a combination of cisplatin and vinorelbine for three days. The cell media was then aspirated, the cells washed with PBS, then exposed to the MTS reagent for 3 hours. After 3 hours of MTS bio-reduction by proliferating cells, the formazan product's absorbance was measured using a 450 nm filter on an Infinite 2000 PRO microplate reader.

[2] = tested on: NRF2 knockout A549 cells (2-11); test: MTS cell proliferation assay, NRF2 knockout A549 cells (2-11); assay type: cell-based, human
Description: as §2

wild type A549 tumors = test: Xenograft mouse model, wild type A549 tumors; assay type: in vivo, athymic nude mice; conditions: for tumor growth over 16 days: tail vein day 0, 3, 6, 9, cisplatin 2 mg/kg, cisplatin 5 mg/kg + vinorelbine 5 mg/kg, carboplatin 25 mg/kg
Description: (§3) The human xenograft model was established using methodology reported previously. Kellar et al., Biomed Res. Int. […] Female athymic nude mice (Envigo, 5-6 weeks old) were used in this study. Approximately 5×10^6 cells (wild type A549 or homozygous knockout (clonal expansion 2-11)) suspended in PBS with 20% Matrigel were injected subcutaneously into right flank of each mouse. Tumor volume was measured three times a week with a digital caliper once palpable, and calculated using the formula, tumor size=ab^2/2, where ‘a’ is the larger and ‘b’ is the smaller of the two dimensions. When tumors grew up to a mean volume of around 100 mm^3, A549 tumor bearing mice or A549-2-11 tumor bearing mice were randomly divided into 7 groups (N=5 for each group) respectively and subject to dose/regimen-finding study. […] Tumor volume and body weight was closely monitored over time. After 16 days, the animals were sacrificed, with tumor removed, weighed and processed for molecular analysis. Mice were euthanized. The data were expressed as mean±SD. Student's t-test and one-way or two-way ANOVA was used to assess the significance of difference. A P value<0.05 was considered significant.
(§4) A549 xenografts were resected on day 16, snap frozen in liquid nitrogen and stored in −80° C. until usage. All immunofluorescence staining was performed as previously described. Wang et al., Investig. Opthalmology Vis. […] Briefly, tumors were embedded in Optimum Cutting Temperature (Tissue Tek, Torrance, Calif., USA) and 16-μm-thick sections were obtained with a Leica CM3050 cryostat (Leica Microsystems, Buffalo Grove, Ill., USA), and mounted on slides. Slides were fixed and incubated with blocking buffer for 1 hour at room temperature. […] Sections were washed in PBS, then mounted with SlowFade Gold antifade mountant with DAPI (Invitrogen, Carlsbad, Calif., USA). Images were obtained with a Zeiss Observer.Z1 microscope (Carl Zeiss, Inc., Gottingen, Germany). The TUNEL assay was conducted with In Situ Cell Death Detection Kit, Fluorescein (Roche, Base, Switzerland), following the manufacturer's instructions. […]

[3] = tested on: NRF2 knockout A549 (2-11) tumors; test: Xenograft mouse model, NRF2 knockout A549 (2-11) tumors; assay type: in vivo, athymic nude mice; conditions: cisplatin 2 mg/kg
Description: as §3, §4

[4] = tested on: A549 Neh2 KO clones 1-17, 2-16, 2-23; test: MTS assay of A549 Neh2 KO clones treated with cisplatin; assay type: cell-based, human; conditions: 1, 2, 3, 5, 10 uM cisplatin
Excerpt: The lung adenocarcinoma-derived cell line, A549, was used transfected with CRISPR/Cas9 designed to target exon 2 of NRF2 to create individual clones with random indel patterns. A total of three clones, 1-17, 2-16, and 2-23, were isolated and expanded. All three clones were collected for genomic DNA isolation and sanger sequencing to confirm the indels present. The DECODR program was used to deconvolute the sanger sequencing of each clone. The A549 cell line is polyploid and therefore, these clones contain 3 alleles of the NRF2 gene. Clone 1-17 contains −2, −2, −13 base pair deletions. Clone 2-16 contains a −1 base pair deletion across all alleles. Clone 2-23 contains two wildtype alleles and a −2 base pair deletion. A cell proliferation assay was used to assess the functionality of NRF2 after CRISPR targeting in combination with cisplatin treatment. […] Absorbance values for each clone and concentration were normalized by dividing the absorbance by the absorbance of each control well (0 μM). Normalized values for each clone at each concentration were then averaged across and standard error of the mean was calculated. […]
Several A549 NRF2 knockout clones were created and used for dose curves with Cisplatin and Carboplatin (0-10 uM concentration). […] These genomic profiles were analyzed by TIDE and DECODR. […]

In the case of “5′ TGGATTTGATTGACATACTTTGG 3′ [Neh2 RNP]”, the “cleavage of wildtype NRF2 amplicon (530 bp)” value (wildtype NRF2 sequence) is reported as “can be seen in both wildtype and R34G-mutated NRF2 sequences” and the “cleavage of R34G-mutated NRF2 amplicon (530 bp)” value [1] is reported as “can be seen in both wildtype and R34G-mutated NRF2 sequences”.
With `N.N.[Cl][Pt][Cl]` [cisplatin] the “cisplatin concentration at which proliferation is adversely affected” value (wild type A549 cells; wild type A549, 72 hours) was ≥ 5 µM, the “chemosensitivity (MTS cell proliferation)” value (wild type A549 cells; wild type A549, increasing dosages, 72 hours) was “resistant to high dosages of Cisplatin” and the “cisplatin concentration with loss of proliferation” value ([2]; 2-11 knockout A549, 72 hours) was ≥ 1 µM. For the same molecule, the “chemosensitivity (MTS cell proliferation)” value ([2]; 2-11 knockout A549, increasing dosages, 72 hours) was “heightened sensitivity”, the “Ki67 staining of xenograft tumors” value (wild type A549 tumors; cisplatin 2 mg/kg versus saline, day 16) was “no difference in Ki67 levels” and the “tumor growth over 16 days” value (wild type A549 tumors) was “proliferate aggressively”. For the same molecule, the “tumor growth over 16 days” value (wild type A549 tumors; listed as Cisplatin) was “not inhibited by the drug”, the “Ki67 staining of xenograft tumors” value ([3]; day 16) was “substantially lower” and the “tumor growth over 16 days” value ([3]; tail vein day 0, 3, 6, 9, cisplatin 5 mg/kg + vinorelbine 5 mg/kg, carboplatin 25 mg/kg) was “proliferation of the implanted cells is arrested, and the tumor size is maintained at the same level; also recorded: smallest tumors; also recorded: significant reduction in tumor cell proliferation”. The “sensitivity to cisplatin (MTS), clones 1-17 and 2-16” value [4] was “relatively the same trend of sensitivity” and the “sensitivity to cisplatin (MTS), clone 2-23” value ([4]; two wildtype alleles and -2 bp deletion) was “even higher resistance than the wildtype cells”.
